Test results as given in US20230103631A1, “PEPTIDES AS SELECTIVE GIP RECEPTOR AGONISTS” (Sanofi, priority 2020, published 2023).
*1 amine or outer side, *2 acyl side, *3 side chain or, on linkers, in order; H or OH if unused. Where a SMILES comes first, the peptide text is derived from it. Side-chain parts run from the residue outwards. [ ]: non-standard residue; d: D form. The star is where a group is joined. C18 diacid = O=C(O)CCCCCCCCCCCCCCCCC(=O)*; γGlu = O=C(O)[C@H](CCC(=O)[*:2])N[*:1]; NMeY = CN[C@@H](Cc1ccc(O)cc1)C(=O)O; AEEA = NCCOCCOCC(=O)O; Aib = CC(C)(N)C(=O)O; Sar = CNCC(=O)O

Columns and labels:
[1] = Dynamic light scattering (DLS) for the assessment of physical stability; type: physicochemical; conditions: DLS buffer system A
Description: A monochromatic and coherent light beam (laser) is used to illuminate the liquid sample. Dynamic Light Scattering (DLS) measures light scattered from particles (1 nm≤radius≤1 μm) that undergo Brownian motion. This motion is induced by collisions between the particles and solvent molecules, that themselves are moving due to their thermal energy. The diffusional motion of the particles results in temporal fluctuations of the scattered light (R. Pecora, Dynamic Light Scattering: Applications of Photon Correlation Spectroscopy, Plenum Press, 1985).
The scattered light intensity fluctuations are recorded and transformed into an autocorrelation function. By fitting the autocorrelation curve to an exponential function, the diffusion coefficient D of the particles in solution can be derived. The diffusion coefficient is then used to calculate the hydrodynamic radius Rh (or apparent Stokes radius) through the Stokes-Einstein equation assuming spherical particles. This calculation is defined in ISO 13321 and ISO 22412 (International Standard ISO13321 Methods for Determination of Particle Size Distribution Part 8: Photon Correlation Spectroscopy, International Organisation for Standardisation (ISO) 1996; International Standard ISO22412 Particle Size Analysis—Dynamic Light Scattering, International Organisation for Standardisation, 2008).
In case of polydisperse samples, the autocorrelation function is the sum of the exponential decays corresponding to each of the species. The temporal fluctuations of the scattered light can then be used to determine the size distribution profile of the particle fraction or family. The first order result is an intensity distribution of scattered light as a function of the particle size. The intensity distribution is naturally weighted according to the scattering intensity of each particle fraction or family. For biological materials or polymers, the particle scattering intensity is proportional to the square of the molecular weight. Thus, small amount of aggregates/agglomerates or presence or a larger particle species can dominate the intensity distribution. However, this distribution can be used as a sensitive detector for the presence of large material in the sample.
The DLS technique produces distributions with inherent peak broadening. The polydispersity index % Pd is a measure of the width of the particle size distribution and is calculated by standard methods described in ISO13321 and ISO22412 [International Standard ISO13321 Methods for Determination of Particle Size Distribution Part 8: Photon Correlation Spectroscopy, International Organisation for Standardisation (ISO) 1996; International Standard ISO22412 Particle Size Analysis—Dynamic Light Scattering, International Organisation for Standardisation (ISO) 2008].
Solutions from solid samples were prepared in buffer systems (see below) with a target concentration of 300 μM compound based on the previously determined % purity.
DLS buffer system A) 20 mM phosphate buffer pH 7.4
DLS buffer system B) 8 mM phosphate buffer pH 7.4, 14 mg/ml propylene glycol, 5.5 mg/ml phenol
DLS buffer system C) 100 mM phosphate buffer pH 7.4, 2.7 mg/ml m-cresol Solutions were filtered through 0.22 μm pore size and filled into sterilized glass containers under laminar flow conditions. For every peptide solution, the apparent hydrodynamic radius (Rh), the corresponding Scattering Intensity (I), and the Mass Contribution (M) were determined as an average over 3-6 replicates from the intensity distribution of the scattered light averaging only high-quality measurements. Relative standard deviations (RSD) for these parameters were calculated from the same number of replicates. […]

[2] = ThT assay for the assessment of physical stability; type: physicochemical; conditions: ThT buffer system A: 100 mM phosphate buffer pH 7.4; 3 mg/ml, 37° C.
Description: Low physical stability of a peptide solution may lead to amyloid fibril formation, which is observed as well-ordered, thread-like macromolecular structures in the sample, which eventually may lead to gel formation. Thioflavin T (ThT) is widely used to visualize and quantify the presence of misfolded protein aggregates [Biancalana et al., Biochim. Biophys. Acta 2010, 1804(7), 1405]. […] Enzymol. 1999, 309, 274]. The time course for fibril formation often follows the characteristic shape of a sigmoidal curve and can be separated into three regions: a lag phase, a fast growth phase, and a plateau phase.
The typical fibril formation process starts with the lag phase in which the amount of partially folded peptide turned into fibrils is not significant enough to be detected. The lag-time corresponds to the time the critical mass of the nucleus is built. Afterwards, a drastic elongation phase follows, and fibril concentration increases rapidly.
Investigations were carried out to determine fibrillation tendencies under stress conditions by shaking at 37° C. within Fluoroskan Ascent FL or Fluoroskan Ascent.
For the tests in Fluoroskan Ascent (FL), 200 μl sample were placed into a 96-well mictrotiter plate PS, flat bottom, Greiner Fluotrac No. 655076. Plates were sealed with Scotch Tape (Qiagen). Samples were stressed by continuous cycles of 10 sec shaking at 960 rpm and 50 sec rest period at 37° C. The kinetic was monitored by measuring fluorescence intensity every 20 min.
Peptides were diluted in a buffer system to a final concentration of 3 mg/ml. 20 μl of a 10.1 mM ThT solution in H2O were added to 2 ml of peptide solution to receive a final concentration of 100 μM ThT. For each sample eight replicates were tested.
ThT buffer system A) 100 mM phosphate buffer pH 7.4
ThT buffer system B) 100 mM phosphate buffer pH 7.4, 2.7 mg/ml m-cresol
Lag time in hours (h) in Thioflavin T (ThT) assay of peptide samples was determined in ThT buffer system A as described in Methods.

Row | Compound | I and SD (Scattering Intensity) ([1]; 0 weeks) [%] | M and SD (Mass Contribution) ([1]; 0 weeks) [%] | apparent Rh and SD ([1]; 0 weeks) [nm] | I and SD (Scattering Intensity) ([1]; 4 weeks storage at 40° C.) [%] | M and SD (Mass Contribution) ([1]; 4 weeks storage at 40° C.) [%] | apparent Rh and SD ([1]; 4 weeks storage at 40° C.) [nm] | Increase in FI [2] | Lag time before increase [2] [h]
1 | CC[C@H](C)[C@H](NC(=O)[C@H](CCCNC(=N)N)NC(=O)[C@H](CC(=O)O)NC(=O)[C@H](CCCCNC(=O)COCCOCCNC(=O)COCCOCCNC(=O)CC[C@H](NC(=O)CCCCCCCCCCCCCCCCC(=O)O)C(=O)O)NC(=O)C(C)(C)NC(=O)[C@@H](NC(=O)[C@H](CO)NC(=O)[C@H](CC(C)C)NC(=O)[C@H](CC(=O)O)NC(=O)[C@H](CO)NC(=O)[C@@H](NC(=O)[C@H](Cc1ccccc1)NC(=O)[C@@H](NC(=O)CNC(=O)[C@H](CCC(=O)O)NC(=O)C(C)(C)NC(=O)[C@H](Cc1ccc(O)cc1)NC)[C@@H](C)O)[C@@H](C)CC)[C@@H](C)CC)C(=O)N[C@@H](Cc1c[nH]cn1)C(=O)N[C@@H](CCC(N)=O)C(=O)NC(C)(C)C(=O)N[C@@H](CCC(=O)O)C(=O)N[C@@H](Cc1ccccc1)C(=O)N[C@H](C(=O)N[C@@H](CCC(=O)O)C(=O)N[C@@H](Cc1c[nH]c2ccccc12)C(=O)N[C@@H](CC(C)C)C(=O)N[C@@H](CC(C)C)C(=O)N[C@@H](C)C(=O)N[C@@H](CCC(N)=O)C(=O)NCC(=O)N1CCC[C@H]1C(=O)N[C@@H](CO)C(=O)N[C@@H](CO)C(=O)NCC(=O)N[C@@H](C)C(=O)N1CCC[C@H]1C(=O)N1CCC[C@H]1C(=O)N1CCC[C@H]1C(=O)N[C@@H](CO)C(N)=O)[C@@H](C)CC [SEQ ID NO: 8, MeHN-Y-Aib-E-G-T-F-I-S-D-I-S-I-Aib-K[{AEEA}2-gGlu-C180H]-D-R-I-H-Q-Aib-E-F--E-W-I-L-A-Q-G-P-S-S-G-A-P-P-P-S-NH2] (H-[NMeY][Aib]EGTFISDLSI[Aib]K([AEEA-AEEA-γGlu-C18 diacid])DRIHQ[Aib]EFIEWLLAQGPSSGAPPPS-NH2) | 73 ± 3 | 100 ± 0 | 2.06 ± 0.03 | 78 ± 9 | 100 ± 0 | 2.00 ± 0.07 | no | >45
2 | CC[C@H](C)[C@H](NC(=O)[C@H](CCCNC(=N)N)NC(=O)[C@H](CC(=O)O)NC(=O)[C@H](CCCCNC(=O)CN(C)C(=O)CN(C)C(=O)CN(C)C(=O)CC[C@H](NC(=O)CCCCCCCCCCCCCCCCC(=O)O)C(=O)O)NC(=O)C(C)(C)NC(=O)[C@@H](NC(=O)[C@H](CO)NC(=O)[C@H](CC(C)C)NC(=O)[C@H](CC(=O)O)NC(=O)[C@H](CO)NC(=O)[C@@H](NC(=O)[C@H](Cc1ccccc1)NC(=O)[C@@H](NC(=O)CNC(=O)[C@H](CCC(=O)O)NC(=O)C(C)(C)NC(=O)[C@@H](N)Cc1ccc(O)cc1)[C@@H](C)O)[C@@H](C)CC)[C@@H](C)CC)C(=O)N[C@@H](Cc1c[nH]cn1)C(=O)N[C@@H](CCC(N)=O)C(=O)NC(C)(C)C(=O)N[C@@H](CCC(=O)O)C(=O)N[C@@H](Cc1ccccc1)C(=O)N[C@H](C(=O)N[C@@H](CCC(=O)O)C(=O)N[C@@H](Cc1c[nH]c2ccccc12)C(=O)N[C@@H](CC(C)C)C(=O)N[C@@H](CC(C)C)C(=O)N[C@@H](C)C(=O)N[C@@H](CCC(N)=O)C(=O)NCC(=O)N1CCC[C@H]1C(=O)N[C@@H](CO)C(=O)N[C@@H](CO)C(=O)NCC(=O)N[C@@H](C)C(=O)N1CCC[C@H]1C(=O)N1CCC[C@H]1C(=O)N1CCC[C@H]1C(=O)N[C@@H](CO)C(N)=O)[C@@H](C)CC [SEQ ID NO: 6, H2N-Y-Aib-E-G-T-F-I-S-D-I-S-I-Aib-K[{N-MeGly}3-gGlu-C18OH]-D-R-I-H-Q-Aib-E-F-I-E-W-I-L-A-Q-G-P-S-S-G-A-P-P-P-S-NH2] (H-Y[Aib]EGTFISDLSI[Aib]K([Sar-Sar-Sar-γGlu-C18 diacid])DRIHQ[Aib]EFIEWLLAQGPSSGAPPPS-NH2) | 86 ± 2 | 100 ± 0 | 1.92 ± 0.03 | 83 ± 1 | 100 ± 0 | 1.94 ± 0.03 | no | >45
3 | CC[C@H](C)[C@H](NC(=O)[C@H](CCCNC(=N)N)NC(=O)[C@H](CC(=O)O)NC(=O)[C@H](CCCCNC(=O)CNC(=O)CNC(=O)CNC(=O)CC[C@H](NC(=O)CCCCCCCCCCCCCCCCC(=O)O)C(=O)O)NC(=O)C(C)(C)NC(=O)[C@@H](NC(=O)[C@H](CO)NC(=O)[C@H](CC(C)C)NC(=O)[C@H](CC(=O)O)NC(=O)[C@H](CO)NC(=O)[C@@H](NC(=O)[C@H](Cc1ccccc1)NC(=O)[C@@H](NC(=O)CNC(=O)[C@H](CCC(=O)O)NC(=O)C(C)(C)NC(=O)[C@@H](N)Cc1ccc(O)cc1)[C@@H](C)O)[C@@H](C)CC)[C@@H](C)CC)C(=O)N[C@@H](Cc1c[nH]cn1)C(=O)N[C@@H](CCC(N)=O)C(=O)NC(C)(C)C(=O)N[C@@H](CCC(=O)O)C(=O)N[C@@H](Cc1ccccc1)C(=O)N[C@H](C(=O)N[C@@H](CCC(=O)O)C(=O)N[C@@H](Cc1c[nH]c2ccccc12)C(=O)N[C@@H](CC(C)C)C(=O)N[C@@H](CC(C)C)C(=O)N[C@@H](C)C(=O)N[C@@H](CCC(N)=O)C(=O)NCC(=O)N1CCC[C@H]1C(=O)N[C@@H](CO)C(=O)N[C@@H](CO)C(=O)NCC(=O)N[C@@H](C)C(=O)N1CCC[C@H]1C(=O)N1CCC[C@H]1C(=O)N1CCC[C@H]1C(=O)N[C@@H](CO)C(N)=O)[C@@H](C)CC [SEQ ID NO: 5, H2N-Y-Aib-E-G-T-F-I-S-D-I-S-I-Aib-K[{Gly}3-gGlu-C18OH]-D-R-I-H-Q-Aib-E-F-I-E-W-I-L-A-Q-G-P-S-S-G-A-P-P-P-S-NH2] (H-Y[Aib]EGTFISDLSI[Aib]K([Gly-Gly-Gly-γGlu-C18 diacid])DRIHQ[Aib]EFIEWLLAQGPSSGAPPPS-NH2) | 76 ± 2 | 100 ± 0 | 2.05 ± 0.04 | 89 ± 3 | 100 ± 0 | 1.99 ± 0.03 | no | >45
